Data: US10183011B2, “Anti-depression compounds” (Board of Regents of the University of Texas System, priority 2009, dated 2019)

Columns and labels:
[1] = system: R6/2 transgenic mice; assay: R6/2 model of Huntington's disease; type: in vivo, mouse
Procedure: FIG. 26A and FIG. 26B. Example 45 Compound (P7C3) Provides Therapeutic Benefit in Animal Model of Huntington's Disease. 40 female R6/2 mice were included in each of VEH (vehicle) and P7C3 (10 mg/kg P7C3 i.p. twice daily) groups, and treatment was begun at 6 weeks of age. […] All measurements were conducted blind to genotype and treatment group.
In one hypothesis, P7C3 (and its derivates) may enhance the formation of neurons in the mature hippocampus by preventing death rather than promoting proliferation of these cells. As such, P7C3 is “proneurogenic” by virtue of its neuroprotective activity. It is also possible that P7C3 (and its derivates) prevents cell death and promotes cell proliferation. It was evaluated whether P7C3 might provide therapeutic benefit in R6/2 mice. […] General condition score was determined by a 3 point scoring system that was conducted blind to genotype and treatment group (score of 0=fur looks groomed, normal posture (no hunch), clear eyes, alert; score of 1=fur beginning to stick up, slight hunch; score of 2=piloerection (fur sticking up), unkempt fur, hunch in back or neck area, crusty eyes). Death was monitored twice daily, and defined as either when animals were found dead, or when they were unable to right themselves after being placed on their backs with movement subsequently initiated by gentle prodding for 30 seconds. […]

[2] = system: Ghsr-null and wild-type mice; assay: Caloric restriction: DG apoptosis (AC3) and forced swim test; type: in vivo, mouse
From the text: FIG. 42. Effects of P7C3 on caloric restriction-induced DG cell survival and antidepressant-like behavior, as measured by FST. (a) Protocol schematic. (b, c) AC3-immunoreactive cell counts in the DG of calorie-restricted and ad libitum-fed mice treated with P7C3 vs. vehicle. (d, e) FST immobility time. Group sizes indicated. (f-k) Representative photomicrograph images of AC3-immunolabeled ventral DG sections. (l-p) Magnified images of AC3-immunoreactive cells. Scale bar in (k; 150 μm) pertains to (f-k), in (p; 25 μm) pertains to (l-p). *P<0.05, **P<0.01, as compared to respective ad libitum-fed, vehicle-treated control group. ^#P<0.05, comparing compound treatment.
Prolonged caloric restriction in wild-type mice elicits an antidepressant-like response in the FST (decreased immobility), whereas this effect is not observed in Ghsr-null mice. To investigate whether this might be related to differences in apoptosis in the DG, similar to that observed above following CSDS, Ghsr-null and wild-type littermates were exposed to ad libitum food access vs. 60% caloric restriction for 10 days. Five days prior to this exposure and throughout the 10-day feeding period, mice received either P7C3 or vehicle. On Day 16, FST performance was assessed, followed by sacrifice of the animals for quantification of AC3+ cells in the DG (FIG. 42, panel a).
The 60% calorie restriction protocol was performed as previously (M. Lutter et al., The orexigenic hormone ghrelin defends against depressive symptoms of chronic stress. Nat Neurosci 11, 752 (2008)). Mice received twice-daily injections of either P7C3 (20 mg/kg/d in divided doses) or vehicle 5 days prior to and during 10 days of calorie restriction or ad-lib feeding, replicating the injection protocol used for the CSDS studies. On Day 16, the forced swim test was performed for each mouse as done previously.

[3] = caloric-restricted Ghsr-null mice
[4] = caloric-restricted wild-type mice

For `OC(CNc1ccccc1)Cn1c2ccc(Br)cc2c2cc(Br)ccc21` (stereo not drawn) [Example P7C3], the “survival of R6/2 mice” value ([1]; 10 mg/kg i.p. twice daily from 6 weeks of age) was “delays animal death by about three weeks”, the general condition score ([1]; at 14 weeks of age) was “improved general condition score and appearance” and the “AC3+ cells in the DG” value [2, 3] was “blocked the increase in apoptosis observed after caloric restriction”. The FST immobility [2, 3] was “significantly decrease immobility”, the “AC3+ cells in the DG” value [2, 4] was “did not further reduce the number of AC3+ cells” and the FST immobility [2, 4] was “had no further effect on reducing immobility”.
